Results reported in patent US12053465B2, “KCC2 expression enhancing compounds and uses thereof” (Whitehead Institute for Biomedical Research, priority 2017, dated 2024).

Key:
Mecp2 mutant mice [1] = assay: Plethysmograph breathing measurement in Mecp2 mutant mouse model of RTT; format: in vivo; conditions: male Mecp2 mutant mice; daily injection, two weeks; vs DMSO- or EtOH-injected control
Experimental: (§1) We assessed the in vivo efficacy of KEECs by treating RTT disease-related symptoms such as breathing pauses and reduced locomotion (58) in a Mecp2 mutant mouse model of RTT. […] Plethysmograph and locomotion measurements were made in 4-6 week-old male Mecp2 mutant animals as a pre-treatment control time point and were then injected daily with KEECs KW-2449 or Piperine. Injection of the solvent DMSO or ethanol (EtOH) served as vehicle controls (FIG. 15A). The same two behavioral measurements in vehicle or KEEC-injected Mecp2 mutant animals were performed again two weeks after the start of daily injections. Each animal's ‘after injection’ data were compared to the ‘before injection’ level to assess behavioral changes.
Male Mecp2 mutant mice (Mecp2^−/y, e.g. the Bird model) between 4-12 weeks of age were used for the in vivo experiments. Subjects were divided into drug treated KO (Piperine/KW-2449), and vehicle treated KO (EtOH/DMSO) groups. Animals were randomly assigned to treatment arms with approximately equivalent numbers in each group. […]
A full body plethysmograph chamber (EMKA Inc, PA) was used to measure breathing patterns. […] For each test, the subject was left in the chamber for 20 minutes, afterwards its breath pattern was recorded for the next 20 minutes, and the estimated amplitude modulation index (eAMI) was calculated from the breath trace to label breath pauses automatically. […]

immature mouse neurons = assay: Gramicidin-perforated patch recording of EGABA in DIV6-7 immature mouse neurons; format: cell-based
Mecp2 mutant mice [2] = assay: Locomotion (infrared beam break) in Mecp2 mutant mouse model of RTT; format: in vivo
Experimental: as §1
Male Mecp2 mutant mice (Mecp2^−/y, e.g. the Bird model) between 4-12 weeks of age were used for the in vivo experiments. Subjects were divided into drug treated KO (Piperine/KW-2449), and vehicle treated KO (EtOH/DMSO) groups. Animals were randomly assigned to treatment arms with approximately equivalent numbers in each group.
KW-2449 stock solution was prepared at 10 mg/ml with DMSO, and Piperine stock solution at 30 mg/ml with EtOH. 20 μl of stock solution were diluted with 1 ml saline for injection. Daily drug treatments or sham injections were performed on both groups between P28 and P56, for at least two weeks, as Mecp2 mutant mice start to show symptoms around P28 and die around P60. Both following tests were performed on both groups of mice before the injections start, and repeated at the end of the injection period. The animals' performance was then compared before and after drug/vehicle injections.
To measure the subjects' nighttime locomotion, a 1-D infrared light-beam frame (ActiMot, TSE-systems, MO) was used. Animals were single-housed in new cages with the same setup as their home cages. The infrared monitor was set up for each cage and the beam crossings was recorded between 17:00 and 9:00 the next morning, where the lights were turned off between 19:00 and 7:00. The average beam crossing frequency during the night (21:00-5:00) was used as the subject's activity score, and the average beam crossing frequency after lights on (7:00-9:00) was used as the subject's day time activity score. The time periods where the mouse is stationary for >5 minutes are discarded to reduce artifact caused by the mouse sleeping. As we look at both day-time and night-time locomotion, a bonferroni correction with repeated comparison number of 2 was applied. All behavioral analyses were performed by experimenters who were blind to the treatment condition.

SMILES: O=C(c1ccc(/C=C/c2n[nH]c3ccccc23)cc1)N1CCNCC1 [KW-2449, (E)-(4-(2-(1H-indazol-3-yl)vinyl)phenyl)(piperazin-1-yl)methanone]
- frequency of breathing pauses (Mecp2 mutant mice [1]): significantly reduced the frequency of breathing pauses
- EGABA after treatment (immature mouse neurons; DIV6-7 immature mouse neurons, untreated about −50 mV): about −70 mV
- significant hyperpolarizing shift in EGABA (immature mouse neurons; DIV6 cultured immature mouse neurons): induces significant hyperpolarizing shift in EGABA
- night-time locomotion (infrared beam break frequency in home cage) (Mecp2 mutant mice [2]; Mecp2 mutant animals, vs DMSO control): significantly increased night-time locomotion
- locomotive activities (Mecp2 mutant mice [2]; male Mecp2 mutant mice, daily injection, two weeks, vs DMSO- or EtOH-injected control): remarkable increase in locomotive activities
